Test results taken from patent US5962487A, “Antipicornaviral compounds and methods for their use and preparation” (Agouron Pharmaceuticals, Inc., priority 1997, dated 1999).

Experiments:
in vitro [1] = format: cell-based; details: human, hi-hela cells
Method in brief: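 HI-HeLa cells infected with HRV-14 at m.o.i. 0.13 or mock-infected, incubated with compounds for two days; XTT/PMS formazan read at 450/650 nm. EC50 as concentration restoring formazan to 50% of mock-infected level; CC50 from mock-infected cells; TI = CC50/EC50.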

HRV-14 = assay: Antirhinoviral HI-HeLa Cell Culture Assay (cell protection, XTT), HRV-14; format: cell-based, human rhinovirus; details: for TI: CC50/EC50, HRV serotype-14, 2880 min; for EC50: Rhinovirus B, HRV14, 48 h, HRV serotype-14 infected HI-HeLa cells, XTT, two days
Method in brief: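 HI-HeLa cells infected at m.o.i. 0.13 (or mock-infected), 8×10^5 cells/mL, incubated with compounds for two days; XTT/PMS formazan read at 450/650 nm. EC50 is the concentration restoring formazan in infected cells to 50% of compound-free mock-infected; CC50 is 50% decrease in mock-infected cells; TI = CC50/EC50.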

HRV 10 = assay: Antirhinoviral HI-HeLa Cell Culture Assay (cell protection, XTT), HRV 10; format: cell-based, human rhinovirus
Procedure: (§1) In the Cell Protection Assay, the ability of compounds to protect cells against HRV infection was measured by the XTT dye reduction method. This method is described in O. S. Weislow, R. Kiser, D. L. Fine, J. Bader, R. H. Shoemaker, and M. R. Boyd, J. Natl. Cancer Inst. 1989, 81, 577-586, which document is entirely incorporated herein by reference.
(§2) HI-HeLa cells were infected with HRV-14 (unless otherwise noted) at a multiplicity of infection (m.o.i.) of 0.13 (virus particles/cell) or mock-infected with medium only. Infected or mock-infected cells were resuspended at 8×10^5 cells per mL and incubated with appropriate concentrations of compounds of formulas I and II. Two days later, XTT/PMS was added to test plates, and the amount of formazan produced was quantified spectrophotometrically at 450/650 nm. The EC50 was calculated as the concentration of compound that increased the percentage of formazan production in compound-treated, virus-infected cells to 50% of that produced by compound-free mock-infected cells. The 50% cytotoxic dose (CC50) was calculated as the concentration of compound that decreased the percentage of formazan produced in compound-treated, mock-infected cells to 50% of that produced in compound-free, mock-infected cells. The therapeutic index (TI) was calculated by dividing the CC50 by the EC50. […]

HRV 1A = assay: Antirhinoviral HI-HeLa Cell Culture Assay (cell protection, XTT), HRV 1A; format: cell-based, human rhinovirus
Procedure: as §1, §2

[2] = molecular target: T1, Rhinovirus 3C protease (RVP) serotype-14 (Human rhinovirus 14, UniProt P03303); assay: Inhibition of Rhinovirus Protease, serotype 14 (FRET assay); format: biochemical; details: read-out: kobs/I
T1 construct: Recombinant Rhinovirus 3C proteases from serotypes 14, 16, 2 or 89 were prepared; made in house
Method in brief: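 Recombinant HRV 3C protease (50–100 nM) in 50 mM tris pH 7.6, 1 mM EDTA, 2% DMSO, with ~1 μM DABCYL-GRAVFQGPVG-EDANS FRET substrate; cleavage read as fluorescence increase. Ki: compound and enzyme preincubated 10 min at 30° C before substrate start; kobs/I from enzyme-start progress curves. Values are percent inhibition at stated μM, or Ki.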

ECHO-11 = assay: Echovirus-11 MRC5 Cell Culture Assay; format: cell-based, Echovirus strain 11; details: Echovirus, 24 h; ECHO-11 infection of MRC5 cells, XTT, one day
Procedure: (§3) The Echovirus strain 11 (ECHO-11) and Enterovirus strain 70 (ENT-70) were purchased from American Type Culture Collection (ATCC). Virus stocks were propagated and antiviral assays were performed in MRC5 cells (ATCC). Cells were grown in Minimal Essential Medium with 10% fetal bovine serum.
(§4) The ability of compounds to protect cells against ECHO-11 or ENT-70 infection was measured by the XTT dye reduction method. Briefly, MRC5 cells were infected with ECHO-11 or ENT-70 at a multiplicity of infection (m.o.i.) of 0.0013 (ECHO-11) and 0.0017 (ENT-70) or mock-infected with medium only. Infected or uninfected cells were resuspended at 2×10^4 cells per mL and incubated with appropriate concentrations of drug. One day later, XTT/PMS was added to test plates, and the amount of formazan produced was quantified spectrophotometrically at 450/650 nm. The EC50 was calculated as the concentration of drug that increased the percentage of formazan production in drug-treated, virus-infected cells to 50% of that produced by drug-free, uninfected cells. The 50% cytotoxic dose (CC50) was calculated as the concentration of drug that decreased the percentage of formazan produced in drug-treated, uninfected cells to 50% of that produced in drug-free, uninfected cells. The therapeutic index (TI) was calculated by dividing the CC50 by the EC50.

in vitro [3] = format: cell-based; details: human, hi-hela cells; remark: listed apart in the source
Procedure: as §4, with “CVA-21” for “ECHO-11”, “CVB-3” for “ENT-70”, “HI-HeLa” for “MRC5”, “0.05 (CVA-21)” for “0.0013 (ECHO-11)”, “0.08 (CVB-3)” for “0.0017 (ENT-70)”, “4×10^4” for “2×10^4”
(§5) The Coxsackie strains A-21 (CVA-21) and B-3 (CVB-3) were purchased from American Type Culture Collection (ATCC). Virus stocks were propagated and antiviral assays were performed in HI-HeLa cells (ATCC). Cells were grown in Minimal Essential Medium with 10% fetal bovine serum.

HI-HeLa cells = assay: in vitro; format: cell-based; details: human, 24 h
Procedure: as §4, with “CVA-21” for “ECHO-11”, “CVB-3” for “ENT-70”, “HI-HeLa” for “MRC5”, “0.05 (CVA-21)” for “0.0013 (ECHO-11)”, “0.08 (CVB-3)” for “0.0017 (ENT-70)”, “4×10^4” for “2×10^4”
as §5

in vitro [4] = format: cell-based; details: human, mrc5 cells
Procedure: as §3, §4

MRC5 cells = assay: in vitro; format: cell-based; details: human, mrc5 cells, 24 h
Procedure: as §3, §4

ENT-70 = assay: Enterovirus-70 MRC5 Cell Culture Assay; format: cell-based, Enterovirus strain 70; details: Enterovirus, 24 h; ENT-70 infection of MRC5 cells, XTT, one day
Procedure: as §3, §4

CVA-21 = assay: Anticoxsackieviral HI-HeLa Cell Culture Assay, CVA-21; format: cell-based, Coxsackie strain A-21; details: 24 h; CVA-21 infection of Hi-HeLa cells, XTT, one day
Procedure: as §4, with “CVA-21” for “ECHO-11”, “CVB-3” for “ENT-70”, “HI-HeLa” for “MRC5”, “0.05 (CVA-21)” for “0.0013 (ECHO-11)”, “0.08 (CVB-3)” for “0.0017 (ENT-70)”, “4×10^4” for “2×10^4”
as §5

CVB-3 = assay: Anticoxsackieviral HI-HeLa Cell Culture Assay, CVB-3; format: cell-based, Coxsackie strain B-3; details: 24 h; CVB-3 infection of Hi-HeLa cells, XTT, one day
Procedure: as §4, with “CVA-21” for “ECHO-11”, “CVB-3” for “ENT-70”, “HI-HeLa” for “MRC5”, “0.05 (CVA-21)” for “0.0013 (ECHO-11)”, “0.08 (CVB-3)” for “0.0017 (ENT-70)”, “4×10^4” for “2×10^4”
as §5

T1 sequence (P03303 1538-1719): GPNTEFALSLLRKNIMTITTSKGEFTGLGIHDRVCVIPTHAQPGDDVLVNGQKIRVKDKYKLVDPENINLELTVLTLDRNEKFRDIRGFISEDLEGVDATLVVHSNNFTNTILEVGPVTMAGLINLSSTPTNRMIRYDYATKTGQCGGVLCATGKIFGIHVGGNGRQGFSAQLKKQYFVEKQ

| SMILES | CC50 at 48 h (in vitro [1]) | TI (HRV-14) | EC50 (HRV-14) | TI (HRV 10; CC50/EC50, HRV 10, 2880 min) | EC50 (HRV 10; Human rhinovirus sp., HRV 10 infected HI-HeLa cells) | TI (HRV 1A; CC50/EC50, HRV 1A, 2880 min) | EC50 (HRV 1A; Human rhinovirus sp., HRV 1A infected HI-HeLa cells) | kinact/KI [2] | EC50 (ECHO-11) | CC50 at 24 h (in vitro [3]) | CC50 (HI-HeLa cells) | CC50 at 24 h (in vitro [4]) | CC50 (MRC5 cells) | EC50 (ENT-70) | EC50 (CVA-21) | EC50 (CVB-3) |
| --- | --- | --- | --- | --- | --- | --- | --- | --- | --- | --- | --- | --- | --- | --- | --- | --- |
| CCOC(=O)/C=C/[C@H](CCC(N)=O)NC(=O)[C@H](Cc1ccccc1)N(C)C(=O)[C@H](CC(C)C)NC(=O)c1cc(C)on1 [Compound 59] | > 100 µM | > 714 | 0.14 µM | > 250 | 0.4 µM | > 250 | 0.4 µM | 108000 M⁻¹ s⁻¹ | – | – | – | – | – | – | – | – |
| CCOC(=O)c1ccc(OCCC2CCN(c3ccc(C)nn3)CC2)cc1 [Pirodavir, reference compound] | > 10 µM | > 300 | 0.03 µM | – | – | – | – | – | > 100 µM | > 100 µM | > 100 µM | > 100 µM | > 100 µM | > 100 µM | > 100 µM | > 100 µM |
| Cc1cc(CCCCCOc2c(Cl)cc(C3=NCCO3)cc2Cl)on1 [WIN 54954, reference compound] | > 63 µM | > 30 | 2.13 µM | – | – | – | – | – | > 100 µM | > 100 µM | > 100 µM | > 100 µM | > 100 µM | > 100 µM | > 100 µM | > 100 µM |
